Paper PMC9144402, “An Octopus-Derived Peptide with Antidiuretic Activity in Rats” (Marine Drugs, 2022)

How the values were obtained:
O. ocellatus = conditions: ref [21]; cited from earlier work
From the text: (§1) These genes produce active nonapeptides, which are named octopressin (OTP) and cephalotocin (CPT). […] OTP was also reported to evoke hyperactivity in chromatophore cells, ra ...

[1] = system: oviduct, aorta, and rectum; conditions: in vitro preparations of oviduct, ref [18]; cited from earlier work
From the text: as §1

[2] = system: common cuttlefish (Sepia officinalis); conditions: ref [22]; cited from earlier work
From the text: as §1

Octopus vulgaris = conditions: same species (Octopus vulgaris); ref [20]; cited from earlier work
From the text: as §1

human OXTR [3] = molecular target: T1, human OXTR (Homo sapiens, UniProt P30559); test: OXTR functional assay, agonist effect (intracellular Ca^2+ increase, fluorimetry, transfected ECV304 cells); format: cell-based; conditions: up to 50 μM, RT, % of control response (1 µM OXT), triplicate
T1 construct: host or cells: ECV304
T1 sequence (P30559 1-389): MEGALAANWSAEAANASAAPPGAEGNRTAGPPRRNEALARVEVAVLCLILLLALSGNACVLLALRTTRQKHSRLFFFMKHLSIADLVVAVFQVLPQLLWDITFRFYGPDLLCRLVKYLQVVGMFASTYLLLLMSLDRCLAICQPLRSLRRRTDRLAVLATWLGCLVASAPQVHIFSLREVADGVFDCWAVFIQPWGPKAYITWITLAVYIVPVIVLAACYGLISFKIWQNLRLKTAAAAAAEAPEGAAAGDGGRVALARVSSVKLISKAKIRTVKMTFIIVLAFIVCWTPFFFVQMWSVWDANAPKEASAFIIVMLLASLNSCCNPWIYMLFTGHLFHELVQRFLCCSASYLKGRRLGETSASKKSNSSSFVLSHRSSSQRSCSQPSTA
Procedure: (§2) Detailed information about the cells tested and other experimental conditions are described in Table 2. Briefly, cells were transfected with a recombinant expression vector capable of expressing each type of human OXT/AVP receptor. To evaluate the agonist effects on OXTR, V1aR, and V1bR, the intracellular Ca^2+ increase after treatment with OTP or CPT was measured by fluorimetry. […] For V2R receptors, cells were treated with peptides with or without the stimulant for 30 min. After that, cyclic AMP (cAMP) concentrations were measured by homogeneous time-resolved fluorescence (HTRF). The results were represented as the percent submaximal response achieved by the stimulant. All experiments were performed in triplicate. Data are presented as the mean ± standard error of the mean. The 50% effective concentration (EC50) and 50% inhibitory concentration (IC50) values were determined using a 4-parameter logistic fitting of a dose–response curve using SigmaPlot 10.0 (Systat Software, Palo Alto, CA, USA).

human V1aR [4] = molecular target: T2, human V1aR (Homo sapiens, UniProt P37288); test: V1aR functional assay, antagonist effect (10 nM AVP-induced intracellular Ca^2+, fluorimetry, CHO cells); format: cell-based; conditions: all concentrations tested; CHO; stimulant 10 nM AVP; RT; fluorimetry; triplicate
T2 construct: host or cells: CHO
T2 sequence (P37288 whole entry): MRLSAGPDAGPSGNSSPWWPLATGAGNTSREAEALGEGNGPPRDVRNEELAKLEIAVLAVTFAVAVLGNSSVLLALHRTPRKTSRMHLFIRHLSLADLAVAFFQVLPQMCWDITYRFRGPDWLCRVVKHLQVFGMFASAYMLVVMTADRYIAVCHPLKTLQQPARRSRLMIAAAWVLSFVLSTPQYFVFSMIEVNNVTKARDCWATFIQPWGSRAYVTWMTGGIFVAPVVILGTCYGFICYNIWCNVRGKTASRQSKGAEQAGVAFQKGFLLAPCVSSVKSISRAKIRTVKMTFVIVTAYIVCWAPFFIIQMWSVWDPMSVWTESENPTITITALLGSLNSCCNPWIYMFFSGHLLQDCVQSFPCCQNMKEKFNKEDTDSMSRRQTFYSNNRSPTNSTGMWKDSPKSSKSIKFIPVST
Procedure: as §2

human V2R [5] = molecular target: T3, human V2R (Homo sapiens, UniProt P30518); test: V2R functional assay, antagonist effect (0.03 nM AVP-induced cAMP, HTRF, CHO cells); format: cell-based; conditions: all concentrations tested, stimulant 0.03 nM AVP, 30 min RT, triplicate
T3 construct: host or cells: CHO
Procedure: as §2

human V1bR [6] = molecular target: T4, human V1bR (Homo sapiens, UniProt P47901); test: V1bR functional assay, antagonist effect (5 nM AVP-induced intracellular Ca^2+, fluorimetry, RBL cells); format: cell-based; conditions: all concentrations tested, stimulant 5 nM AVP, RT, triplicate
T4 construct: host or cells: RBL
T4 sequence (P47901 1-424): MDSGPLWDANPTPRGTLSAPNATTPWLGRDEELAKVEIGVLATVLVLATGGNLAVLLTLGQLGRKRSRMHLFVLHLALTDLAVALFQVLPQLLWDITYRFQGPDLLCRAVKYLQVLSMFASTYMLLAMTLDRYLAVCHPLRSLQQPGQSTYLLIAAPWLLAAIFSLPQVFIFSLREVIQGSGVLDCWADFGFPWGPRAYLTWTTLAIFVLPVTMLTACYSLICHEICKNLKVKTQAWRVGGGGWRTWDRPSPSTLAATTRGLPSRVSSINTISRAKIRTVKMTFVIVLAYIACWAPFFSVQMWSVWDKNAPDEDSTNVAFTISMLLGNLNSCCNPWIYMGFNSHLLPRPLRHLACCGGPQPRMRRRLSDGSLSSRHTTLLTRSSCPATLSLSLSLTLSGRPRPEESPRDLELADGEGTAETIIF
Procedure: as §2

human V1bR [7] = molecular target: T4, human V1bR; test: V1bR functional assay, agonist effect (intracellular Ca^2+ increase, fluorimetry, RBL cells); format: cell-based; conditions: up to 50 μM; RBL; RT; fluorimetry; % of control response (0.1 µM AVP); triplicate
Procedure: as §2

human V1aR [8] = molecular target: T2, human V1aR; test: V1aR functional assay, agonist effect (intracellular Ca^2+ increase, fluorimetry, CHO cells); format: cell-based; conditions: up to 50 μM, RT, % of control response (1 µM AVP), triplicate
Procedure: as §2

human V2R [9] = molecular target: T3, human V2R; test: V2R functional assay, agonist effect (cAMP accumulation, HTRF, CHO cells); format: cell-based; conditions: 50 μM; CHO; 30 min RT; HTRF; % of control response (1 nM AVP); triplicate
Procedure: as §2

human OXTR [10] = molecular target: T1, human OXTR; test: OXTR functional assay, antagonist effect (30 nM OXT-induced intracellular Ca^2+, fluorimetry, ECV304 cells); format: cell-based; conditions: 50 μM; ECV304; stimulant 30 nM OXT; RT; fluorimetry; triplicate
Procedure: as §2

Question: With “CYWTSCPIG-NH2 (disulfide bond) (disulfide) [OTP, octopressin, natural OXT/AVP analog from Octopus vulgaris, synthesized by solid-phase peptide synthesis]” as the substance, how does the hemolymph osmolality (O. ocellatus) read?
Answer: decreases hemolymph osmolality

Question: What about the “effect on peripheral tissues” value [1] of the same substance?
Answer: induced contractions

Question: And the “effect on long-term memory” value [2]?
Answer: affect long-term memory

Question: What about the behavioral effect (Octopus vulgaris) of the same substance?
Answer: hyperactivity in chromatophore cells, rapid respiration, and jetting water from the siphon

Question: And the “OXTR-mediated intracellular Ca^2+ increase (agonist effect)” value (human OXTR [3])?
Answer: did not seem to induce

Question: What about the “antagonist effect against V1aR activation” value (human V1aR [4]) of the same substance?
Answer: could not inhibit

Question: What about the “antagonist effect against V2R activation” value (human V2R [5]) of the same substance?
Answer: could not inhibit

Question: What about the “antagonist effect against V1bR activation” value (human V1bR [6]) of the same substance?
Answer: could not inhibit

Question: And the “V1bR-mediated intracellular Ca^2+ increase (agonist effect)” value (human V1bR [7])?
Answer: did not seem to induce

Question: What about the “V1aR-mediated intracellular Ca^2+ increase (agonist effect)” value (human V1aR [8]) of the same substance?
Answer: did not seem to induce

Question: What about the “V2R-mediated cAMP accumulation (agonist effect)” value (human V2R [9]) of the same substance?
Answer: < 30%

Question: What about the “inhibition rate of OXTR activation” value (human OXTR [10]) of the same substance?
Answer: approximately 30%
